Data: patent publication US10308689B2, “Dengue virus (DV) polypeptide sequences, T cell epitopes and methods and uses thereof” (LA JOLLA INSTITUTE FOR ALLERGY AND IMMUNOLOGY, priority 2010, dated 2019)
Ends that are not written are not given here.

Legend:
[1] = target: purified HLA molecules (corresponding predicted allele); assay: MHC peptide-binding assay, summary over alleles; parameters: species or system human
[2] = system: PBMC of healthy adult blood donors from Colombo, Sri Lanka; assay: Ex vivo IFNγ ELISPOT, HLA-matched PBMC of Sri Lankan blood donors; type: cell-based, human; parameters: Total Response per epitope: unit not given here; conditions: for # donors responded: number of donors responding to the epitope; for T cell response [SFC]: ex vivo IFNγ SFC/10^6 PBMC; for # of responders: responding donors, HLA allele(s)
[3] = restricting HLA allele and serotype as given
[4] = total over responding donors, restricting HLA allele and serotype as given
[5] = IFNγ ELISPOT response summed over responding donors, per epitope
[6] = HLA-matched PBMC, proteome-wide screen
[7] = HLA allele, supertype and serotype
[8] = summed IFNγ ELISPOT response per epitope, HLA allele and serotype as given

Row | Sequence | Total Response per epitope [2, 5] | # donors responded [2, 6] | further results
1 | MALKDFKEF | – | – | IC50 ([1]; allele B*3501): 77 nM
2 | MALSIVSLF | – | – | # donors responded [2, 3]: 1; Total Response per epitope [2, 4]: 48.3; IC50 ([1]; allele B*5101): 605 nM
3 | MAVGMVSIL | 361.7 | 5 | IC50 ([1]; allele B*3501): 10 nM
4 | MEITAEWLW | 583.3 | 1 | T cell response [SFC] ([2]; per epitope): 583 SFC; # of responders [2]: 1; IC50 ([1]; allele B*5801): 5 nM
5 | MLVTPSMTM | 1735.0 | 8 | T cell response [SFC] ([2]; per epitope): 1735 SFC; # of responders [2]: 8; IC50 ([1]; allele B*3501): 3850 nM
6 | MMATIGIAL [MMATIGIAL] | 908.3 | 6 | IC50 ([1]; allele B*3501): 1120 nM
7 | MPVTVASAAQ | 51.7 | 1 | –
8 | MVSRLLLNR | 28.3 | 1 | –
9 | NPEIEDDIF | 3390.0 | 10 | T cell response [SFC] ([2]; per epitope): 3390 SFC; # of responders [2]: 10; IC50 ([1]; allele B*3501): 518 nM
10 | NPNMIDKTPV | 376.7 | 2 | –
11 | NPWMEDKTPV | 191.7 | 2 | –
12 | QYIFTGQPL | 138.3 | 1 | IC50 ([1]; allele A*2402): 271 nM
13 | RAAVEDEEF | 381.7 | 1 | IC50 ([1]; allele B*5801): 866 nM
14 | RASFIEVKTC | 290.0 | 2 | –
15 | REDLWCGSL | 96.7 | 1 | –
16 | REIPERSWNT | 1278.3 | 2 | –

Row | Sequence | Total Response per epitope [2, 5] | # donors responded [2, 6] | further results
17 | REWCFTGERN | 1345.0 | 2 | –
18 | RFLEFEALGF | 181.7 | 1 | –
19 | RPGYHTQTA | 501.7 | 2 | –
20 | SEMAEALKGM | 30.0 | 1 | –
21 | SPKRLATAIA | 68.3 | 1 | –
22 | TLMAAILAY | – | – | # donors responded [2, 3]: 1; Total Response per epitope [2, 4]: 43.3
23 | TLMAMDLGEL | 823.3 | 1 | –
24 | TPFGIIPAL | – | – | # of responders [2]: 1
25 | TPPGSRDPF | – | – | # donors responded [2, 7]: 7; Total Response per epitope [2, 8]: 1416.7; IC50 ([1]; allele B*3501): 161 nM
26 | TTKRDLGMSK | – | – | # donors responded [2, 7]: 1; Total Response per epitope [2, 8]: 35.0
27 | VATTFVTPM | – | – | # donors responded [2, 7]: 8; T cell response [SFC] ([2]; per epitope): 2777 SFC; # of responders [2]: 8; Total Response per epitope [2, 8]: 2776.7; IC50 ([1]; allele B*3501): 205 nM
28 | VPLLAMGCY | – | – | # donors responded [2, 7]: 1; T cell response [SFC] ([2]; per epitope): 1083 SFC; # of responders [2]: 1; Total Response per epitope [2, 8]: 1083.3
29 | WHYDQDHPY | – | – | IC50 ([1]; allele B*3501): 7600 nM
30 | YAQMWQLMYF | 135.0 | 1 | –
31 | YTPEGIIPTL | – | – | # donors responded [2, 7]: 1; T cell response [SFC] ([2]; per epitope): 872 SFC; # of responders [2]: 1; Total Response per epitope [2, 8]: 871.7
